Read-outs that look alike come from different tables or passages of the source.
Columns and labels:
[1] = assay type: biochemical
Procedure: First, 50 μL of potassium ferricyanide and 20 μL of each sample were added to 50 μL of a 0.2 M phosphate buffer solution (pH 6.6) and the mixture was allowed to react at 50° C. for 20 min. After completion of the reaction, 50 μL of a 10% TCA solution was added, followed by centrifugation at 3000×g for 20 min. 100 μL of the supernatant, 200 μL of triple-distilled water, and 20 μL of 0.1% ferric chloride were added, and the absorbance was measured at 700 nm. Trolox and BHA were used as positive controls.

[2] = Radical cation de-colorization assay using ABTS; assay type: biochemical
Procedure: 7 mM ABTS was mixed with 2.45 mM potassium persulfate and incubated at room temperature for 16 h to create ABTS cations (ABTS^+). […] The results are shown in Tables 5 and 6 (see FIGS. 4 and 8).

[3] = Free radical scavenging assay using DPPH; assay type: biochemical
Procedure: An antioxidant scavenges DPPH radicals, losing its original color and being made transparent. The test sample was mixed with 2,2-diphenyl-1-picrylhydrazyl (DPPH, 100 μM) in a ratio of 1:20 and the mixture was stored at 37° C. for 30 min. After completion of the reaction, the absorbance was measured at 517 nm using a spectrophotometer. A lower absorbance indicates a higher antioxidant activity. […] The results are shown in Tables 3 and 4 (see FIGS. 3 and 7).

Question: For `O=C1O[C@H]([C@@H](O)CO)C(O)=C1O` [Ascorbic acid, ascorbic acid], which “Reducing power activities (absorbance at 700 nm)” value (“Reducing power activities” for short) ([1]; yeast extract 2, 15.625 μg/mL) is on record?
Answer: 0.058 ± 0.001

Question: And the “Reducing power activities” value ([1]; yeast extract 2, 62.5 μg/mL)?
Answer: 0.267 ± 0.002

Question: And the “Reducing power activities” value ([1]; yeast extract 2, 250 μg/mL)?
Answer: 0.940 ± 0.005

Question: What about the “Reducing power activities” value ([1]; yeast extract 2, 1000 μg/mL) of the same compound?
Answer: 1.146 ± 0.008

Question: What about the “Reducing power activities” value ([1]; yeast extracts 1, 15.625 μg/mL) of the same compound?
Answer: 0.058 ± 0.001

Question: And the “Reducing power activities” value ([1]; yeast extracts 1, 62.5 μg/mL)?
Answer: 0.267 ± 0.002

Question: And the “Reducing power activities” value ([1]; yeast extracts 1, 250 μg/mL)?
Answer: 0.940 ± 0.005

Question: What about the “Reducing power activities” value ([1]; yeast extracts 1, 1000 μg/mL) of the same compound?
Answer: 1.146 ± 0.008

Question: And the “ABTS scavenging activities (IC50) AVERAGE” value ([2]; yeast extracts 1)?
Answer: 260 µg/mL

Question: What about the “ABTS scavenging activities (IC50) AVERAGE” value ([2]; yeast extracts 2) of the same compound?
Answer: 260 µg/mL

Question: And the “DPPH scavenging activities (IC50) AVERAGE” value ([3]; yeast extracts 1)?
Answer: 10 µg/mL

Question: What about the “DPPH scavenging activities (IC50) AVERAGE” value ([3]; yeast extracts 2) of the same compound?
Answer: 10 µg/mL
